PMC3871589, “Evaluation of STAT3 Signaling in ALDH+ and ALDH+/CD44+/CD24− Subpopulations of Breast Cancer Cells” (PLoS ONE, 2013)
pIC50: −log10 of the molar value.

Key:
STAT1 = settings: cited from earlier work
[1] = test system: STAT3 phosphorylation (Y705); experiment: Western blot of STAT3 phosphorylation in ALDH+ cells; type: cell-based, human; settings: LLL12 5 µmol/L or Stattic 10 µmol/L 24 hours, ShRNA 48 hours then puromycin
Method: The ALDEFLUOR kit (StemCell Technologies) was used to isolate the population with high ALDH enzymatic activity as previously described. Briefly, cells were trypsinized to single cells using 0.05% trypsin and subsequently suspended in ALDEFLUOR assay buffer containing ALDH substrate (BAAA, 1 µmol/l per 1×10^6 cells) and then incubated for 40 minutes at 37°C. For each sample, an aliquot of cells was stained under identical conditions with 15 mmol/L diethylaminobenzaldehyde (DEAB), a specific ALDH inhibitor, as an ALDH^− control. Anti-human PE-CD24 and PE-Cy5-CD44 antibody (BioLegend) were used for CD44/CD24 identification and to separate ALDH^+/CD44^+/CD24^− and ALDH^−/CD44^+/CD24^+ cells when combined with ALDH staining. Analysis was performed using a FACStarPLUS (Becton Dickinion) flow cytometer. To assess the effect of STAT3 inhibitors on the subpopulation of ALDH^+ cells, un-separated breast cancer cells were treated with 5 µmol/L of LLL12 or 10 µmol/L Stattic for 24 hours prior to performing the ALDEFLUOR assay.
After sorting by flow cytometry, ALDH^+ and ALDH^+/CD44^+/CD24^− stem-like cells were cultured in serum-free stem cell medium in ultra-low attachment six-well plates (Corning) to maintain cancer stem cell characteristics. […]

[2] = test system: ALDH+/CD44+/CD24− SUM-159 breast cancer stem-like cells; experiment: Mouse xenograft of SUM159 ALDH+/CD44+/CD24− cells; type: in vivo, NOD/SCID mice; settings: 5 mg/kg IP daily; P<0.05
Method: All animal studies were conducted in accordance with the principles and standard procedures approved by IACUC at the Research Institute at Nationwide Children’s Hospital and the University Committee on the Use and Care of Animals at the University of Michigan. ALDH^+ subpopulations of MDA-MB-231 and ALDH^+/CD44^+/CD24^− subpopulations of SUM-159 breast cancer cells (1×10^5) respectively were injected subcutaneous (s.c.) into the flank area of female Non-obese diabetic (NOD)/Severe combined immunodeficiency (SCID) mice which were purchased from Jackson Laboratory.

[3] = test system: SUM159 ALDH+ breast cancer stem-like cells; experiment: Mouse mammary fat pad model with SUM159 ALDH+ cells; type: in vivo, NOD/SCID mice; settings: 5 mg/kg IP daily
Method: For mammary fat pad experiments, 1×10^5 of sorted SUM159 ALDH^+ cells, assessed using Aldefluor kit (StemCell Technologies) were injected into the humanized fat pads of NOD/SCID mice (The Jackson Laboratory), as previously described [5]. […] Tumors were measured by a caliper and the volume was calculated using V = π (width^2×length)/6. After 15 days of treatments with LLL12 or vehicle control, tumors were harvested from euthanized mice, snap-frozen in liquid nitrogen, and stored in −80°C. […] The rest of tumors tissues were homogenized to examine the expression of STAT3 phosphorylation by western blot.

ALDH− cells = experiment: MTT cell viability assay, ALDH− subpopulation; type: cell-based, human; settings: Figure S4
Method: The breast cancer cells were seeded in 96-well plates (3,000 cells/well) in triplicates in a serum-free mammary epithelial basal medium. The following day, cancer cells were treated with 1 to 10 µmol/L of LLL12 or Stattic for 72 hours, STAT3 ShRNA or control GFP shRNA lentivirus (CTL ShRNA) for 48 hours. MTT (Thiazolyl Blue Tetrazolium Bromide, Sigma-Aldrich) assay was used to determine the cell viability.

EGFR = EGFR (Homo sapiens, UniProt P00533); experiment: Kinase profiler assay, EGFR; type: biochemical; settings: bound stated jointly for the other protein kinases; Table S3
Method: (§1) The effects of LLL12 on twenty six purified human protein kinases were performed at the Millipore UK Limited (Dundee, UK) and Reaction Biology Corp. (Malvern, PA) using the Kinase profiler assay. Assays contained a peptide substrate, purified recombinant human protein kinases to be tested, and gamma-labeled ATP, magnesiumion. Radioactive phosphorylated product was measured and quantitated via a scintillation counter.

[4] = test system: MDA-MB-231, SK-BR-3, and SUM159 breast cancer cell lines; experiment: Apoptosis (cleaved PARP and Caspase-3) in un-separated breast cancer cells; type: cell-based, human; settings: un-separated MDA-MB-231, SK-BR-3, SUM159 cells; 10 µM, 24 hours
Method: After sorting by flow cytometry, ALDH^+ and ALDH^+/CD44^+/CD24^− stem-like cells were cultured in serum-free stem cell medium in ultra-low attachment six-well plates (Corning) to maintain cancer stem cell characteristics. ALDH^−, ALDH^−/CD44^+/CD24^+cells and un-separated cells were cultured in regular medium and replaced with identical stem cell medium for three days before being harvested. To assess the effects of STAT3 inhibitors, ALDH^+ and ALDH^+/CD44^+/CD24^− subpopulations of breast cancer cells were treated with LLL12 (5 µmol/L) of or static (10 µmol/L) for 24 hours. STAT3, or control GFP shRNA lentivirus (CTL ShRNA) was introduced into ALDH^+ breast cancer stem-like cells for 48 hours, then followed by selection with puromycin (0.2 µg/ml) for 72 hours. Antibodies (Cell Signaling Tech.) against phospho-specific STAT3 (Tyrosine 705) (P-STAT3, Y705), ERK1/2 (Threonine 202/Tyrosine 204), cleaved Poly (ADP-ribose) polymerase (PARP), ALDH1, cleaved caspase-3, and GAPDH were used for western blots.
LLL12 was synthesized in Dr. Pui-Kai Li’s laboratory (College of Pharmacy, The Ohio State University). Un-separated cells were treated with 10 µM of LLL12 or DMSO for 24 hours, and the phosphorylation of STAT3 (Y705), and ERK 1/2 (T202/Y204), and expression of STAT3 downstream genes, cleaved caspase-3, and PARP were detected by Western blots. (JPG) Click here for additional data file.

Bmx = Bmx (Homo sapiens, UniProt P51813); experiment: Kinase profiler assay, Bmx; type: biochemical; settings: 10 concentrations, 100 µM highest; Table S3
Method: as §1

[5] = test system: tumor tissues from breast cancer stem-like cells; experiment: Immunohistochemistry of tumor tissues (Ki-67, cleaved caspase-3); type: in vivo, NOD/SCID mice; settings: 5 mg/kg IP daily
Method: Human breast cancer tissue microarray slides, comprising 95 breast cancer cases, were obtained from the Biochain Institute, Inc.. These slides were baked at 60°C for 1 hour. After deparaffinization, the slides were boiled in a pressure cooker filled with 10 mM Sodium Citrate (PH6.0), and then subjected to immunohistochemistry or immunofluorescence staining. P-STAT3 (Y705) (1∶25; Signaling Technology, Beverly, MA), ALDH1 (1∶100; BD Pharmingen, San Diego, CA), Ki-67 (1∶100; Santa Cruz Biotechnology, Santa Cruz, CA) or cleaved Caspase-3 (1∶100; Signaling Technology, Beverly, MA) antibody were used. For immunofluorescence, the slides were incubated with both primary antibodies and double-stained with Alexa Fluor® 488 conjugated anti-rabbit IgG and Alexa Fluor® 594 conjugated anti-mouse IgG (Cell Signaling Technology, Beverly, MA) overnight at 4°C. The nuclei were subsequently stained with DAPI. For immunohistochemistry, endogenous peroxidase activity was quenched by incubation in 3% hydrogen peroxide for 10 min. After blocking, the slides were incubated with primary antibody overnight at 4°C. The Histostain-Plus Kits (Invitrogen, Carlsbad, CA) were used per the manufacturer’s protocol. […] The staining intensity was scored under microscope as described elsewhere. Significance of correlation between P-STAT3 and ALDH1 was determined using two-sided Pearson Chi-square (χ^2) test.

Chain of Bmx (P51813 whole entry): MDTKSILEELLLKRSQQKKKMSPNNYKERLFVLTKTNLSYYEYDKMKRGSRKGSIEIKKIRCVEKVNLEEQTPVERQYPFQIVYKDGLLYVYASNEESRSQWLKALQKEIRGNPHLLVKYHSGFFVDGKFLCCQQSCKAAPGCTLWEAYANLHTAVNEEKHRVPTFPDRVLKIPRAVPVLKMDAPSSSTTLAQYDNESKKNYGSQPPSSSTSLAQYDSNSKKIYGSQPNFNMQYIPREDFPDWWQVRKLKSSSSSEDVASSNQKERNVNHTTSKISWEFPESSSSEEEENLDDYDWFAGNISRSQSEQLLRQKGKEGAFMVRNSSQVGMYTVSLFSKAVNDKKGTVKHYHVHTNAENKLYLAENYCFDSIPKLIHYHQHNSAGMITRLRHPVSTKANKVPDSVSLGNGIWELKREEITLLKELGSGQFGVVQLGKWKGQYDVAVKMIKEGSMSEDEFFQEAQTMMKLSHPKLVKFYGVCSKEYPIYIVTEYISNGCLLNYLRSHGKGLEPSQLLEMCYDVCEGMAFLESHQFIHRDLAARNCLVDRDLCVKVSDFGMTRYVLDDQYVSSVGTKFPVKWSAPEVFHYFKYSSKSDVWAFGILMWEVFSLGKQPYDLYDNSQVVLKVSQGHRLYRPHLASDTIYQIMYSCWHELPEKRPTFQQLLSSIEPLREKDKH
Chain of EGFR (P00533 25-1210): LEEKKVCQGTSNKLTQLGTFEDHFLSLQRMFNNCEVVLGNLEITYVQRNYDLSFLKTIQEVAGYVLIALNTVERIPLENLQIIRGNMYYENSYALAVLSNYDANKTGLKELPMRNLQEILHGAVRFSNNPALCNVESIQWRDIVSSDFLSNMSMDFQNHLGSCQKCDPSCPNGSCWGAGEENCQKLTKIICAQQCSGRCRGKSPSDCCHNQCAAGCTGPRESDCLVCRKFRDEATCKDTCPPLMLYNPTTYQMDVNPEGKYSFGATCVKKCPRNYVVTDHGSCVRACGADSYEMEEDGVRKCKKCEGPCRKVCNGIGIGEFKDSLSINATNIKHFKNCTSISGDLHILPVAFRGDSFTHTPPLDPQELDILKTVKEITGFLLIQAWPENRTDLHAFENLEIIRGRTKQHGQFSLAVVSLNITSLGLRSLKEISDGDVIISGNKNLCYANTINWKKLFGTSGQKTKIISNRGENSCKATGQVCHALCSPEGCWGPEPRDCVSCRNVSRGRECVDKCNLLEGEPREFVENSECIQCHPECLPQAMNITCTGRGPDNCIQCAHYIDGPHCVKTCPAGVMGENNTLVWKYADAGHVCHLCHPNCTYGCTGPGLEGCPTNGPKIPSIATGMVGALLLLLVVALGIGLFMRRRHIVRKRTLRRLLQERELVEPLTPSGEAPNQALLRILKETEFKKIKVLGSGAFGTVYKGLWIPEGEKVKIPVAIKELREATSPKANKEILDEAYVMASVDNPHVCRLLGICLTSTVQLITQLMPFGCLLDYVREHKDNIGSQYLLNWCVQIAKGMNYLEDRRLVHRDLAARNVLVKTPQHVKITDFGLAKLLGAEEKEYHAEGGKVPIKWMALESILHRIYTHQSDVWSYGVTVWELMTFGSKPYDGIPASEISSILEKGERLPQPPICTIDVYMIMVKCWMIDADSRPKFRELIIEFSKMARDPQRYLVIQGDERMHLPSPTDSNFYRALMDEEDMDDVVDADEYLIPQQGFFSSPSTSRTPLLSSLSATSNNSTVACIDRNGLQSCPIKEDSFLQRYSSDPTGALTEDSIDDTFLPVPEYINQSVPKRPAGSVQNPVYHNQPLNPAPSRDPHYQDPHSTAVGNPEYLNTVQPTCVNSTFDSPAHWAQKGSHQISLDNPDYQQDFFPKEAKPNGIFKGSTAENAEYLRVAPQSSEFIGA

**Q.** With `NS(=O)(=O)c1cccc2c1C(=O)c1cccc(O)c1C2=O` [LLL12] as the compound, how does the “STAT1 DNA binding activity” value (STAT1) read?
**A.** not

**Q.** What about the “STAT3 phosphorylation in ALDH+ cells” value [1] of the same compound?
**A.** inhibited

**Q.** What about the tumor volume [2] of the same compound?
**A.** significantly suppressed

**Q.** What about the “STAT3 phosphorylation in tumor” value [3] of the same compound?
**A.** significant suppresses

**Q.** And the tumor mass ([3]; 15 days, P<0.05)?
**A.** significant suppresses

**Q.** And the tumor volume ([3]; 15 days, P<0.05)?
**A.** significant suppresses

**Q.** What about the “effects against the ALDH− cells (cell viability)” value (ALDH− cells) of the same compound?
**A.** some inhibitory effects

**Q.** What about the pIC50 (EGFR) of the same compound?
**A.** ≤ 4.11

**Q.** What about the “apoptosis (cleaved PARP and Caspase-3)” value [4] of the same compound?
**A.** induced apoptosis

**Q.** And the pIC50 (Bmx)?
**A.** < 4.00

**Q.** What about the “number of Ki-67 positive cells” value [5] of the same compound?
**A.** decreased

**Q.** And the “number of cleaved caspase-3 positive cells” value [5]?
**A.** increased
